According to patent US20220193062A1 (DENOVO BIOPHARMA LLC, priority 2018, published 2022):
Read-outs that look alike come from different tables or passages of the source.

Legend:
[1] = system: EGFR, Yes, ErbB2, and JAK3; conditions: cited from earlier work
[2] = system: Bmx, CSK, FGR, BRK, and HCK; conditions: cited from earlier work
[3] = biological target: BTK (Rattus norvegicus, UniProt Q5S255); conditions: read-out: in vivo IC50; rats; cited from earlier work
[4] = system: HBL-1 cells; test: Apoptosis assay, annexin V flow cytometry; format: cell-based; conditions: HBL-1, 48 h
[5] = system: HBL-1 cells; test: Whole-transcriptome RNA-seq; format: cell-based; conditions: HBL-1, 24 hours
[6] = system: p-BTK in HBL-1 and TMD8 cells; test: Western blot of p-BTK after enzastaurin; format: cell-based; conditions: 2 hours treatment
[7] = system: signals downstream of BCR in HBL-1, TMD-8, and SU-DHL-6 cells; test: Western blot of downstream BCR signalling; format: cell-based
[8] = system: HBL-1 cells; test: Transwell invasion assay (Matrigel); format: cell-based; conditions: HBL-1, 2 micromolar enzastaurin and/or 0.02 micromolar ibrutinib
[9] = system: ABC and GCB types of DLBCL cell lines; test: Cell Titer-Glo cell viability, enzastaurin alone, 9 DLBCL cell lines; format: cell-based; conditions: 72 h; read-out: 50% inhibitory concentration (IC50) of cell proliferation
[10] = system: DLBCL patients; conditions: Phase I/II studies, cited from earlier work
[11] = system: SU-DHL-5; test: Cell proliferation assay (Cell Titer AQueous One Solution), Example 2; format: cell-based; conditions: Homo sapiens; SU-DHL-5, 72 h, 0.014 μM-10 μM
[12] = system: ABC-DLBCL HBL-1 cells engrafted in NPG mice; test: HBL-1 lymphoma xenograft model; format: in vivo; conditions: for tumour weight: end of the experiment (day 39), vehicle 1321.50±168.84 mg; for reduction of tumor volume: enzastaurin 50 mg/kg BID oral, ibrutinib 12 mg/kg QD oral, 21 days
[13] = system: SU-DHL-6; test: Cell proliferation assay (Cell Titer AQueous One Solution), Example 2; format: cell-based; conditions: Homo sapiens; SU-DHL-6, 72 h, 0.014 μM-10 μM
[14] = system: HBL-1 cells; test: Transwell migration assay; format: cell-based; conditions: HBL-1, 2 micromolar enzastaurin and/or 0.02 micromolar ibrutinib
[15] = system: high-risk DLBCL patients; conditions: enzastaurin alone, after remission of B cell lymphoma; cited from earlier work
[16] = system: DLBCL patients; conditions: DLBCL trials of enzastaurin; cited from earlier work
[17] = system: PARP, XIAP, MCL-1, caspase-3, Bcl-2 in HBL-1 cells; test: Western blot of proteins associated with apoptosis; format: cell-based; conditions: HBL-1, 48 hours
[18] = system: relapsed DLBCL patients; conditions: cited from earlier work
[19] = biological target: Plx1 (Xenopus laevis, UniProt P70032); conditions: cited from earlier work
Chain of Plx1 (P70032 whole entry): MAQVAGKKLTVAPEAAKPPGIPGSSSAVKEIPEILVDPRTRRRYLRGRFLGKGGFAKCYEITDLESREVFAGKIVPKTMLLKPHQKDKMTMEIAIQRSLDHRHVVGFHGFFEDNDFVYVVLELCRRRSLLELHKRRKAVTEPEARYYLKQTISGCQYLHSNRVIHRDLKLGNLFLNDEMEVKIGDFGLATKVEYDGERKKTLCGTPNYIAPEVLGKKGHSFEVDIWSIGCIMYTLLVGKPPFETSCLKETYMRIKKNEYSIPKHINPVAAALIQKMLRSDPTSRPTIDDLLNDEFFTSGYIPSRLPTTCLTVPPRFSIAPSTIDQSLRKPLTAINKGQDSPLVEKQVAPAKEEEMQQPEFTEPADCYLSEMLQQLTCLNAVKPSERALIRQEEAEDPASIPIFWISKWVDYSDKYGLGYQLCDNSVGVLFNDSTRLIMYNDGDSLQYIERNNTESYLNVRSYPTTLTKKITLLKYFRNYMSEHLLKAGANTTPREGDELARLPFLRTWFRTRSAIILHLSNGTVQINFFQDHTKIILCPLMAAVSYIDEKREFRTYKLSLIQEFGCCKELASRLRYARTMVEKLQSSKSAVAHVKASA

[20] = biological target: PLK3 (Homo sapiens, UniProt Q9H4B4); conditions: cited from earlier work
Chain of PLK3 (Q9H4B4 whole entry, species assumed, the tested form may be a part): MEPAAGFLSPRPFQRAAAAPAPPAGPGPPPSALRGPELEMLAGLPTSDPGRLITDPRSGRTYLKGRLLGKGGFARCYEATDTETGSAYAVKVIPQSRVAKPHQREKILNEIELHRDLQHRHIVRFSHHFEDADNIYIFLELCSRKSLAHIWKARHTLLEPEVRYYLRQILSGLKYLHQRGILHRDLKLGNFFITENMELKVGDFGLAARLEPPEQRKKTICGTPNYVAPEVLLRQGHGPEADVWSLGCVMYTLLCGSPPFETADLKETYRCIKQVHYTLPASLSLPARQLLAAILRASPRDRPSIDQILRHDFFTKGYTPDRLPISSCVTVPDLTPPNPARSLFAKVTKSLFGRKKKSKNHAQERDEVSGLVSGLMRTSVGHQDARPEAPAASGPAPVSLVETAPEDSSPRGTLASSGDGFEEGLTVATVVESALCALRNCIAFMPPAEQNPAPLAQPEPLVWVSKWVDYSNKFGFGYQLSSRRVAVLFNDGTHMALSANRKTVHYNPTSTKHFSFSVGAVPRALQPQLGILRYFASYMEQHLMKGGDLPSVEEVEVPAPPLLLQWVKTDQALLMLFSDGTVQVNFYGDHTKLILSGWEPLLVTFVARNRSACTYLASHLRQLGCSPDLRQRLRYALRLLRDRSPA

[21] = biological target: T1, bone marrow tyrosine kinase on chromosome X (BMX) (Homo sapiens, UniProt P51813); conditions: targets Cys496 in the BMX ATP binding domain; cited from earlier work
T1 sequence (P51813 1-675): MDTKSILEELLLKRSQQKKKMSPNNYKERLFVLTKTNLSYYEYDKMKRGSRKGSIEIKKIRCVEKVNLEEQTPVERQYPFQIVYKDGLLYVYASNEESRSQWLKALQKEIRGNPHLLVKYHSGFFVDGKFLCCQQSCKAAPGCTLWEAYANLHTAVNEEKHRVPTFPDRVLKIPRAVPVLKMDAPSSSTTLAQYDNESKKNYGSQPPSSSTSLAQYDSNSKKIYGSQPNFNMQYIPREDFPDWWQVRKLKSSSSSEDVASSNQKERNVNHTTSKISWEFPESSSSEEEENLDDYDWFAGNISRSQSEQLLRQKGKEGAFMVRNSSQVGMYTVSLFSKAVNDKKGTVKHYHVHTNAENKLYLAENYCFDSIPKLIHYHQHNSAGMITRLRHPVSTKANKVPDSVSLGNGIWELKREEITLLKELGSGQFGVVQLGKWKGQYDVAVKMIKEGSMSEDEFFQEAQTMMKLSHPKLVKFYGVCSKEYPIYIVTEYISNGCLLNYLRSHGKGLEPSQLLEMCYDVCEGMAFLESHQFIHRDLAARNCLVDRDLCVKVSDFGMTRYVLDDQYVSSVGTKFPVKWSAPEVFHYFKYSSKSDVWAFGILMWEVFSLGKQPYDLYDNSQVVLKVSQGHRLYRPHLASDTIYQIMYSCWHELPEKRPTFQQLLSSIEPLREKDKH

[22] = biological target: BTK (Homo sapiens, UniProt Q06187); conditions: cited from earlier work
Chain of BTK (Homo sapiens, UniProt Q06187) (Q06187 whole entry, species assumed): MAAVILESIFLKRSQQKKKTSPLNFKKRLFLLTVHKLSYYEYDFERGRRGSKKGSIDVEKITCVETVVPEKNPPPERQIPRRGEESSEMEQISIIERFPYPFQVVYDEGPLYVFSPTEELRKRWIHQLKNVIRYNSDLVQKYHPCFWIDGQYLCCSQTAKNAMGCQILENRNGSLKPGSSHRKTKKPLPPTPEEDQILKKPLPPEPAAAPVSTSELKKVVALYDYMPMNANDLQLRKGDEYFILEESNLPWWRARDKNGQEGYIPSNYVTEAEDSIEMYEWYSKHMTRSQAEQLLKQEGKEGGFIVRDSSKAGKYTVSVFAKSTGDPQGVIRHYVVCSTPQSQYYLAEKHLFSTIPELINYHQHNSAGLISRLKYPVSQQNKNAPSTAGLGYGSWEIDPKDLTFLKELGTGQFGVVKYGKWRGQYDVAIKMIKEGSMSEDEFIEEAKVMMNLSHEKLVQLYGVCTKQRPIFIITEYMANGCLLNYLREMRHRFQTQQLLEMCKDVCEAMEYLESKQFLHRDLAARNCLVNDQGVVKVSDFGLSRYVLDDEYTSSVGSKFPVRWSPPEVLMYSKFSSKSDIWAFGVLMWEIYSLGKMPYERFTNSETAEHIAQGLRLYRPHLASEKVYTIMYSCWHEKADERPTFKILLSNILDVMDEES

[23] = biological target: T2, interleukin-2-inducible T-cell kinase (ITK) (Homo sapiens, UniProt Q08881); conditions: cited from earlier work
T2 sequence (Q08881 1-620): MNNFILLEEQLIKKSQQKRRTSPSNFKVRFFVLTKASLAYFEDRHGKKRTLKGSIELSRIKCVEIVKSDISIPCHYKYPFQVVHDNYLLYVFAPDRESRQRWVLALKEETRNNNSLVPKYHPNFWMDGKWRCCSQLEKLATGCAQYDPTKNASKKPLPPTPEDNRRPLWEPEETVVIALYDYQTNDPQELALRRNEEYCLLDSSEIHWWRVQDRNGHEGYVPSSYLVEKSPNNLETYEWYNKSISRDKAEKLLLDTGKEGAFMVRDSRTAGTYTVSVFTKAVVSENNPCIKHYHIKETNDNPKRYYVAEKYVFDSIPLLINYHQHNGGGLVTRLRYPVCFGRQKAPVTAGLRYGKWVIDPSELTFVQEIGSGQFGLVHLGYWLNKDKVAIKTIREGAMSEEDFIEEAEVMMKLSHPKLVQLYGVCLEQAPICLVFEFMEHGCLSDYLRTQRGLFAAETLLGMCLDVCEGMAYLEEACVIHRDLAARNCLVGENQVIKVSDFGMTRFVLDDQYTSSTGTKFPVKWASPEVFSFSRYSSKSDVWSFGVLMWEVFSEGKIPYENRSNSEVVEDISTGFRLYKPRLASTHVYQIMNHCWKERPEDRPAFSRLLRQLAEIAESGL

Chain of BTK (Rattus norvegicus, UniProt Q5S255) (Q5S255 1-660): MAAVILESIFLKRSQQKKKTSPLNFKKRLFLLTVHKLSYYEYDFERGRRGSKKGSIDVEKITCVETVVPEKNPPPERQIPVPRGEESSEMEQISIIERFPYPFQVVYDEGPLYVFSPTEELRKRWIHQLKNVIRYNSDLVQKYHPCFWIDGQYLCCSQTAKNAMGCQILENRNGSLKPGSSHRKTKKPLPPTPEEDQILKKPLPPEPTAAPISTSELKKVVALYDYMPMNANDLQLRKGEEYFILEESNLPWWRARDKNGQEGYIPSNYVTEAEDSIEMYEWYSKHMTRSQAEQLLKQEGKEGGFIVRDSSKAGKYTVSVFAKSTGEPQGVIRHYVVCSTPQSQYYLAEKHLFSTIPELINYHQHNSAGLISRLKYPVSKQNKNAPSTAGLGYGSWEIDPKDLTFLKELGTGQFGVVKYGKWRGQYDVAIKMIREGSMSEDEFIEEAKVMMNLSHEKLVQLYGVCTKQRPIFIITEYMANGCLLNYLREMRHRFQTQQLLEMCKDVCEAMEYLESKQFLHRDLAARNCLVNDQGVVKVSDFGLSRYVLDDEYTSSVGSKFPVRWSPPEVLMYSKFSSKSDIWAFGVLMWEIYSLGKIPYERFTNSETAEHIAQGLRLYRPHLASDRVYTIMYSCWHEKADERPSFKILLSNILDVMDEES

SMILES: C=CC(=O)N1CCC[C@@H](n2nc(-c3ccc(Oc4ccccc4)cc3)c3c(N)ncnc32)C1 (racemic) [PCI-32765]
- activity on EGFR, Yes, ErbB2, and JAK3 [1]: lower activity
- inhibition of Bmx, CSK, FGR, BRK, and HCK [2]: moderate inhibition

SMILES: Cc1c(NC(=O)c2cc3c(s2)CCCC3)cccc1-c1cn(C)c(=O)c(Nc2ccc([C@@H]3C(=O)N(C)CCN3C)cc2)n1 [GDC-0834]
- IC50 [3]: 5.6 µM

SMILES: Cn1cc(C2=C(c3cn(C4CCN(Cc5ccccn5)CC4)c4ccccc34)C(=O)NC2=O)c2ccccc21 [enzastaurin]
- apoptosis as measured by annexin V staining ([4]; enzastaurin alone (concentration in FIG. 3a)): 25.5±5.4%
- downregulated genes contained in the combination treatment group [5]: 365 genes
- share of downregulated transcripts contained in the combination treatment group [5]: Approximately 91%
- transcripts significantly down ([5]; 2 micromolar enzastaurin and/or 0.02 micromolar ibrutinib, p<0.05): 339 transcripts
- p-BTK level [6]: significant upregulation
- phosphorylation of glycogen synthase kinase 3β (GSK3β) ([7]; low doses, 60 min and 120 min): clearly reduced
- p-BTK, p-ERK and p-AKT expression ([7]; short-term and low-dose treatment): increasing
- invasive abilities [8]: 97.0 % of control
- IC50 [9]: 6.7 to 16 µM
- patients experiencing FFP 20˜50 months ([10]; 4/55 patients): 7%
- patients with prolonged freedom from progression (FFP≥4 cycles) ([10]; 8/55 patients): 15%
- IC50 [11]: 3.6 µM
- tumour weight [12]: 1151.62 ± 163.79 mg
- reduction of tumor volume [12]: weak activity
- IC50 [13]: 5.9 µM
- migration abilities [14]: 79.0 % of control
- disease-free survival (DFS) [15]: did not significantly improve
- survival of DGM1-positive over DGM1-negative patients [16]: significantly improved survival
- cleavage of PARP and caspase-3 [17]: increase the cleavage of PARP and caspase-3 slightly

SMILES: C=CC(=O)N1CCC[C@@H](n2nc(-c3ccc(Oc4ccccc4)cc3)c3c(N)ncnc32)C1 [ibrutinib]
- apoptosis as measured by annexin V staining ([4]; first-listed of two ibrutinib doses (FIG. 3a)): 15.9±6.0%
- apoptosis as measured by annexin V staining ([4]; second-listed of two ibrutinib doses (FIG. 3a)): 19.0±6.7%
- phosphorylation of BTK and AKT [7]: reduced
- phosphorylation of mTOR, PLCγ2, ERK and P38 ([7]; combination compared to each monotherapy alone): mild effect
- invasive abilities [8]: 85.0 % of control
- overall response rate (ORR) ([18]; patients with ABC-DLBCL (14/38)): 37%
- overall response rate (ORR) ([18]; patients with GCB-DLBCL (1/20)): 5%
- tumour weight [12]: 1141.80 ± 235.57 mg
- reduction of tumor volume [12]: weak activity
- migration abilities [14]: 70.2 % of control

SMILES: C/C(O)=C(\C#N)C(=O)Nc1cc(Br)ccc1Br [LFM-A13]
- IC50 [19]: 10 µM
- IC50 [20]: 61 µM

SMILES: C=CC(=O)Nc1cc(-n2c(=O)ccc3cnc4ccc(-c5ccc(NS(C)(=O)=O)cc5)cc4c32)ccc1C [BMX-IN-1]
- IC50 [21]: 8 nM

SMILES: NC(=O)[C@H]1CCN(c2ncnc(N)c2F)C[C@@H]1N1CCC[C@@H](Nc2cc(Cl)cc(C(F)(F)F)c2)C1=O [SNS-062]
- Kd [22]: 0.3 nM
- Kd [23]: 2.2 nM
